From US9464092B2, “Transient protection of normal cells during chemotherapy” (G1 Therapeutics, Inc., priority 2013, dated 2016) come the findings set out here.

Each structure is given as a SMILES string. Like-named read-outs stand apart in the source and are kept apart here.

Data set [1] can be described thus: Metabolic stability in liver microsomes. The settings on record: each of the species tested. The class given is in vitro ADME, human, dog, rat, monkey, and mouse. As to the method: Human, mouse, and dog liver microsomes were purchased from Xenotech, and Sprague-Dawley rat liver microsomes were prepared by Absorption Systems. The reaction mixture comprising 0.5 mg/mL of liver microsomes, 100 mM of potassium phosphate, pH 7.4, 5 mM of magnesium chloride, and 1 uM of test compound was prepared. The test compound was added into the reaction mixture at a final concentration of 1 uM. An aliquot of the reaction mixture (without cofactor) was incubated in shaking water bath at 37 deg. C. for 3 minutes. The control compound, testosterone, was run simultaneously with the test compound in a separate reaction. The reaction was initiated by the addition of cofactor (NADPH), and the mixture was then incubated in a shaking water bath at 37 deg. C. Aliquots (100 μL) were withdrawn at 0, 10, 20, 30, and 60 minutes for the test compound and 0, 10, 30, and 60 minutes for testosterone. […] Test compound samples were analyzed using the Orbitrap high resolution mass spectrometer to quantify the disappearance of parent test compound and detect the appearance of metabolites. […] Half-lives were calculated using GraphPad software, fitting to a single-phase exponential decay equation.
When calculated half-life was longer than the duration of the experiment, the half-life was expressed as >the longest incubation time. The calculated half-life is also listed in parentheses. […]

In data set [2] the test system is blood cell counts. In words: 5FU-induced myelosuppression, repeated cycles. The settings on record: 150 mg/kg oral before 5FU 150 mg/kg i.p., every 21 days for 3 cycles. The class given is in vivo, C57Bl/6 mice. The text has this:
This was repeated every 21 days for 3 cycles. Blood samples were taken for hematology analysis on Day 10 of Cycles 1-3.

In data set [3] the test system is RB-intact, Cdk4/6-dependent cell line (WM2664 or tHS68). In words: EdU proliferation, RB-intact Cdk4/6-dependent cell line. Particulars: 24 hours.
Data set [4] can be described thus: Mouse pharmacokinetics (oral gavage / intravenous). The class given is in vivo, mice. Particulars: mouse.
Data set [5] has as its system tHS68 cells (CDK4/6-dependent cell line). In words: Cell cycle arrest by propidium iodide flow cytometry, tHS68. The class given is cell-based, human. Particulars: 300 nM, 24 hours. The text has this: (§1) To test the ability of Cdk4/6 inhibitors to induce a clean G1-arrest, a cell based screening method was used consisting of two Cdk4/6-dependent cell lines (tHS68 and WM2664; Rb-positive) and one Cdk4/6-independent (A2058; Rb-negative) cell line. […] At the conclusion of the experiment, cells were harvested, fixed, and stained with propidium iodide (a DNA intercalator), which fluoresces strongly red (emission maximum 637 nm) when excited by 488 nm light. Samples were run on Dako Cyan flow cytometer and >10,000 events were collected for each sample. Data were analyzed using FlowJo 2.2 software developed by TreeStar, Inc.

In data set [6] the test system is Rb phosphorylation at Ser780 and Ser807/811. In words: Rb phosphorylation western blot. The class given is cell-based. Particulars: 300 nM. How it is done: The Cdk4/6-cyclin D complex is essential for progression from G1 to the S-phase of the DNA cell cycle. This complex phosphorylates the retinoblastoma tumor suppressor protein (Rb). […] Samples were lysed and protein was assayed by western blot analysis. Rb phosphorylation was measured at two sites targeted by the Cdk4/6-cyclin D complex, Ser780 and Ser807/811 using species specific antibodies.

The subject of data set [7] is WM2664 cells (CDK4/6-dependent cell line). In words: Cell cycle arrest by propidium iodide flow cytometry, WM2664. The class given is cell-based. Particulars: 300 nM, 24 hours.
Text: as §1
In general terms: In flow cytometry, cells or beads pass a laser one at a time.

Data set [8] has as its system RB-negative SCLC cell lines (H69, H82, H209, H345, NCI417, or SHP-77). In words: EdU proliferation, RB-negative SCLC cell lines. Particulars: 24 hours.
Data set [9] relates to human renal proximal tubule cells. In words: Cell cycle analysis of renal proximal tubule cells with etoposide or cisplatin. The settings on record: 10-1000 nM with etoposide or cisplatin. The class given is cell-based. As to the method:
The ability of Cdk4/6 inhibitors to protect human renal proximal tubule cells from chemotherapy induced DNA damage was analyzed using etoposide and cisplatin. […] At the conclusion of the experiment, cells were harvested, fixed, and stained with propidium iodide (a DNA intercalator), which fluoresces strongly red (emission maximum 637 nm) when excited by 488 nm light. Samples were run on Dako Cyan flow cytometer.

Turning to `CN1CCN(c2ccc(Nc3ncc4cc5n(c4n3)C3(CCCCC3)CNC5=O)nc2)CC1` [Compound T], the “half-life in liver microsomes compared with PD0332991” value in [1] is “shorter half-life than PD0332991”. Besides, the “myelosuppression after repeated 5FU cycles” value in [2] is listed as “reduced the myelosuppression on Day 10 of the third cycle”. The “effect on proliferation (EdU, percent of cells in S-phase)” value in data set [3] is recorded as “inhibits the Rb-positive cell line (tHS68)”. Also, the F in data set [4] is reported as 80%. For the same compound, the half-life in [4] (plasma, po, 30 mg/kg, 30 mg/kg oral gavage, read-out: t1/2 p.o. (converted)) is 300 min. The half-life in data set [4] (plasma, po, 30 mg/kg, read-out: plasma half-life following oral administration) lay within 180 to 300 min. In addition, the bioavailability in data set [4] (plasma, po, 30 mg/kg, read-out: oral bioavailability (F (%))) fell in the range of 52 to 80%. In data set [4] (plasma, iv, 10 mg/kg i.v.), this compound displayed an AUC(0-inf) of 1.3 µM·h and a clearance of 35 mL/min/kg. In addition, the Vd in data set [4] (plasma, iv, 10 mg/kg i.v., read-out: Vss) was found to be 2.7 L/kg. Further, in data set [4] (plasma, 30 mg/kg oral gavage), the AUC worked out at 2.9 µM·h, the Cmax was 2500 nM and the Tmax stood at 1 h. Further, the “effect on S-phase peak” value in data set [5] is “causes a loss of the S-phase peak”. For the same compound, in data set [6] (Rb-dependent cell lines (tHS68, WM2664)), the “time post exposure by which Rb phosphorylation is blocked” value was not above 16 h. Also, the “effect on Rb phosphorylation” value in data set [6] (Rb-independent cells (A2058)) is “no effect”. Moreover, the “effect on S-phase peak” value in data set [7] is “causes a loss of the S-phase peak”. Further, the “effect on proliferation (EdU, percent of cells in S-phase)” value in data set [8] is recorded as “does not affect the growth of the Rb-negative cell lines”. In addition, in data set [9], the “protection from chemotherapy induced DNA damage (cell cycle distribution)” value is “protects renal proximal tubule epithelial cells from chemotherapy induced DNA damage”.

The term bioavailability denotes the share of a dose that reaches the circulation, judged against a reference dose that is usually intravenous. Usually AUC(0-inf) stands for the area under the concentration-time curve extrapolated to infinity. High values mean more exposure, low ones less exposure. By AUC is commonly meant the area under the concentration-time curve, a measure of exposure. What is called Cmax is the maximum level reached in the sampled fluid or tissue. Usually Tmax stands for the time from dosing to the highest level.
